Assays:
Experiment in all cases: Bliss excess, mean over the matrix (fraction); higher = more synergy
[1] = test system: U251 (Low Grade Glioma)
Summary of the method: (§1)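 Cell lines in DMEM/F12 or RPMI with 10% FBS were plated in 1536-well plates, held 24 hours at 37°C, 5% CO2, then given two-drug dose matrices for 72 hours (DMSO typically 0.2%). Viability was read by CellTiter-Glo 2.0 luminescence and scaled as inhibition from 0 (vehicle wells) to 1 (blank wells). Combination Emax is the second-highest inhibition in the matrix; Bliss excess is observed combination effect minus expected EA + EB − EA·EB, EA and EB being single-agent effects.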

[2] = test system: NCI-H1792 (Lung Adenocarcinoma)
Summary of the method: as §1

[3] = test system: COLO-678 (Colorectal Carcinoma)
Summary of the method: as §1

[4] = test system: SR (Other Blood Carcinomas)
Summary of the method: as §1

[5] = test system: L-540 (Hodgkin's Lymphoma)
Summary of the method: as §1

[6] = test system: TC-71 (Ewing's Sarcoma)
Summary of the method: as §1

[7] = test system: TOV-112D (Ovarian Carcinoma)
Summary of the method: as §1

[8] = test system: EVSA-T (Breast Carcinoma)
Summary of the method: as §1

[9] = test system: K-562 (Chronic Myelogenous Leukemia)
Summary of the method: as §1

[10] = test system: PANC-08-13 (Pancreatic Carcinoma)
Summary of the method: as §1

[11] = test system: P12-ICHIKAWA (T-Lymphoblastic Leukemia)
Summary of the method: as §1

[12] = test system: LN-18 (Glioblastoma)
Summary of the method: as §1

[13] = test system: DND-41 (T-Lymphoblastic Leukemia)
Summary of the method: as §1

[14] = test system: MFM-223 (Breast Carcinoma)
Summary of the method: as §1

[15] = test system: DiFi (Colorectal Carcinoma)
Summary of the method: as §1

[16] = test system: SW837 (Colorectal Carcinoma)
Summary of the method: as §1

[17] = test system: HDQ-P1 (Breast Carcinoma)
Summary of the method: as §1

[18] = test system: KCL-22 (Chronic Myelogenous Leukemia)
Summary of the method: as §1

[19] = test system: TE-6 (Esophageal Squamous Cell Carcinoma)
Summary of the method: as §1

[20] = test system: KYSE-180 (Esophageal Squamous Cell Carcinoma)
Summary of the method: as §1

| SMILES | Bliss excess [1] | Bliss excess [2] | Bliss excess [3] | Bliss excess [4] | Bliss excess [5] | Bliss excess [6] | Bliss excess [7] | Bliss excess [8] | Bliss excess [9] | Bliss excess [10] | Bliss excess [11] | Bliss excess [12] | Bliss excess [13] | Bliss excess [14] | Bliss excess [15] | Bliss excess [16] | Bliss excess [17] | Bliss excess [18] | Bliss excess [19] | Bliss excess [20] |
| --- | --- | --- | --- | --- | --- | --- | --- | --- | --- | --- | --- | --- | --- | --- | --- | --- | --- | --- | --- | --- |
| CC1(C)CCC(CN2CCN(c3ccc(C(=O)NS(=O)(=O)c4ccc(NCC5CCOCC5)c([N+](=O)[O-])c4)c(Oc4cnc5[nH]ccc5c4)c3)CC2)=C(c2ccc(Cl)cc2)C1 [Venetoclax] + CCN(CCO)CCCOc1ccc2c(Nc3cc(CC(=O)Nc4cccc(F)c4)[nH]n3)ncnc2c1 [AZD2811] (first compound max 1 µM, 7x7, partner max 1 µM) | -0.0104 | 0.0122 | -0.0312 | 0.0073 | 0.0086 | 0.0227 | -0.0053 | 0.0485 | -0.0236 | -0.0269 | -0.0612 | -0.0146 | 0.0178 | 0.0084 | -0.098 | 0.0166 | 0.0063 | 0.0709 | -0.0112 | 0.0453 |
| COc1nnc2ccc(N3CCC(c4ccc(OCCN5CCN(C)C(=O)[C@H]5C)cc4)CC3)nn12 [AZD5153] + C[C@@H]1COCCN1C2=NC(=NC(=C2)C3(CC3)[S@](=N)(=O)C)C4=C5C=CNC5=NC=C4 [AZD6738] (first compound max 1 µM, 7x7, partner max 10 µM) | 0.0544 | -0.0628 | 0.0502 | -0.016 | -0.0623 | 0.0254 | 0.0306 | 0.0026 | -0.0303 | 0.035 | 0.055 | -0.02 | 0.0628 | -0.0011 | 0.0524 | -0.0066 | 0.0527 | -0.0188 | -0.0503 | 0.0656 |
| NC1(C(=O)N[C@@H](CCO)c2ccc(Cl)cc2)CCN(c2ncnc3[nH]ccc23)CC1 [Capivasertib] + CC(=O)c1c(C)c2cnc(Nc3ccc(N4CCNCC4)cn3)nc2n(C2CCCC2)c1=O [Palbociclib] (first compound max 10 µM, 7x7, partner max 10 µM) | 0.0007 | 0.0419 | -0.0295 | 0.0289 | -0.0243 | 0.0341 | 0.0029 | 0.0168 | 0.0122 | -0.0151 | -0.0096 | 0.0368 | -0.0146 | 0.0091 | -0.0394 | -0.0531 | -0.0092 | 0.0438 | -0.0195 | 0.0645 |
| C[C@@H](c1ccc2nccn2c1)n1nnc2ncc(-c3cnn(C)c3)nc21 [Savolitinib] + Cc1c2c(nn1C)CSCc1cc(n(C)n1)CSc1cc(c3ccccc3c1)OCCCc1c(C(=O)O)n(C)c3c-2c(Cl)ccc13 [AZD5991] (first compound max 1 µM, 7x7, partner max 1 µM) | -0.0691 | -0.0279 | -0.0899 | 0.0023 | -0.0054 | -0.021 | -0.0242 | -0.0233 | 0.0145 | -0.0452 | 0.02 | 0.005 | -0.0188 | -0.0228 | -0.0321 | -0.0644 | -0.0456 | -0.0134 | -0.0541 | -0.0117 |
| CN(C)CCCOc1ccc(-c2ccc3ncc4c(c3c2)n(C2CCOCC2)c(=O)n4C)cn1 [AZD0156] + O=C(c1cc(Cc2n[nH]c(=O)c3ccccc23)ccc1F)N1CCN(C(=O)C2CC2)CC1 [Olaparib] (first compound max 3 µM, partner max 3 µM) | 0.0345 | 0.0848 | -0.0152 | 0.194 | 0.0746 | 0.3 | 0.0851 | 0.092 | 0.0271 | -0.0215 | 0.191 | 0.0366 | 0.0867 | -0.0186 | -0.0082 | 0.0159 | -0.0859 | 0.157 | 0.0029 | 0.0654 |
| CC1(C)CCC(CN2CCN(c3ccc(C(=O)NS(=O)(=O)c4ccc(NCC5CCOCC5)c([N+](=O)[O-])c4)c(Oc4cnc5[nH]ccc5c4)c3)CC2)=C(c2ccc(Cl)cc2)C1 [Venetoclax] + CN(C)CCCOc1ccc(-c2ccc3ncc4c(c3c2)n(C2CCOCC2)c(=O)n4C)cn1 [AZD0156] (first compound max 1 µM, 7x7, partner max 1 µM) | -0.026 | 0.0133 | -0.0549 | -0.0266 | 0.0137 | -0.0022 | -0.0341 | -0.0005 | -0.0005 | 0.0037 | 0.0509 | -0.0488 | 0.0278 | -0.0313 | 0.0216 | -0.0067 | -0.0292 | 0.0042 | 0.0055 | -0.0128 |
| Cc1c2c(nn1C)CSCc1cc(n(C)n1)CSc1cc(c3ccccc3c1)OCCCc1c(C(=O)O)n(C)c3c-2c(Cl)ccc13 [AZD5991] + C=CCn1c(=O)c2cnc(Nc3ccc(N4CCN(C)CC4)cc3)nc2n1-c1cccc(C(C)(C)O)n1 [AZD1775] (first compound max 1 µM, partner max 1 µM) | 0.0025 | -0.0453 | -0.0614 | -0.045 | -0.0127 | 0.0478 | -0.017 | 0.0165 | 0.0092 | 0.0156 | 0.0528 | -0.0087 | -0.0375 | -0.0611 | 0.0285 | 0 | -0.0575 | -0.035 | 0.0135 | 0.0464 |
| CN(CCO)CC[C@H](CSc1ccccc1)Nc1ccc(S(=O)(=O)NC(=O)c2ccc(N3CCC([C@@H](O)c4ccccc4-c4ccc(Cl)cc4)CC3)cc2)cc1S(=O)(=O)C(F)(F)F [AZD4320] + Cc1cc2ncnn2cc1Nc1ncc2c(n1)n(C1CCOCC1)c(=O)n2C [AZD7648] (first compound max 1 µM, 7x7, partner max 10 µM) | -0.0405 | -0.024 | -0.0684 | -0.0189 | 0.0389 | -0.0201 | -0.019 | -0.0237 | -0.0332 | -0.042 | -0.002 | 0.0064 | -0.0011 | -0.0229 | -0.0203 | -0.0273 | -0.0085 | 0.0444 | -0.0059 | -0.0091 |
| CC(=O)Nc1cccc(-n2c(=O)n(C3CC3)c(=O)c3c(Nc4ccc(I)cc4F)n(C)c(=O)c(C)c32)c1 [Trametinib] + Cc1nc(-c2cn3c(n2)-c2ccc(-c4cnn(C(C)(C)C(N)=O)c4)cc2OCC3)n(C(C)C)n1 [Taselisib] (first compound max 1 µM, 7x7, partner max 10 µM) | 0.132 | 0.109 | -0.0114 | 0.22 | 0.0227 | 0.136 | 0.176 | -0.0335 | 0.151 | 0.132 | 0.267 | 0.0432 | 0.164 | -0.0174 | 0.107 | 0.05 | 0.221 | 0.292 | 0.0911 | 0.0886 |
| C=CCn1c(=O)c2cnc(Nc3ccc(N4CCN(C)CC4)cc3)nc2n1-c1cccc(C(C)(C)O)n1 [AZD1775] + C1CN(CCC1(C(=O)N[C@@H](CCO)C2=CC=C(C=C2)Cl)N)C3=NC=NC4=C3C=CN4 [Capivasertib] (first compound max 3 µM, partner max 3 µM) | -0.0223 | 0.0053 | -0.0893 | 0.0013 | -0.0019 | 0.0131 | 0.028 | 0.129 | -0.0516 | -0.0493 | 0.0076 | 0.0196 | -0.0428 | -0.0369 | 0.0272 | -0.0504 | -0.0679 | 0.035 | 0.0422 | -0.0066 |
| CC1(C)CCC(CN2CCN(c3ccc(C(=O)NS(=O)(=O)c4ccc(NCC5CCOCC5)c([N+](=O)[O-])c4)c(Oc4cnc5[nH]ccc5c4)c3)CC2)=C(c2ccc(Cl)cc2)C1 [Venetoclax] + C[C@@H](Nc1cc(F)cc(F)c1)c1cc(C(=O)N(C)C)cc2c(=O)cc(N3CCOCC3)oc12 [AZD8186] (first compound max 1 µM, 7x7, partner max 3 µM) | -0.0431 | -0.035 | -0.0975 | -0.027 | 0.027 | -0.0381 | -0.0205 | 0.0269 | 0.038 | -0.031 | -0.0097 | -0.0273 | 0.0053 | -0.0187 | -0.021 | -0.0419 | -0.0215 | 0.0129 | -0.04 | -0.0031 |
| NC1(C(=O)N[C@@H](CCO)c2ccc(Cl)cc2)CCN(c2ncnc3[nH]ccc23)CC1 [Capivasertib] + COc1nnc2ccc(N3CCC(c4ccc(OCCN5CCN(C)C(=O)[C@H]5C)cc4)CC3)nn12 [AZD5153] (first compound max 10 µM, 7x7, partner max 1 µM) | 0.0284 | 0.0039 | -0.0688 | -0.0166 | -0.0794 | 0.0228 | 0.0088 | -0.033 | 0.0061 | 0.0483 | 0.0553 | 0.0494 | 0.0339 | -0.0302 | -0.056 | -0.0301 | 0.0651 | 0.0441 | -0.0708 | 0.0387 |
| CC(=O)c1c(C)c2cnc(Nc3ccc(N4CCNCC4)cn3)nc2n(C2CCCC2)c1=O [Palbociclib] + Cc1c2c(nn1C)CSCc1cc(n(C)n1)CSc1cc(c3ccccc3c1)OCCCc1c(C(=O)O)n(C)c3c-2c(Cl)ccc13 [AZD5991] (first compound max 10 µM, 7x7, partner max 1 µM) | -0.0479 | -0.0186 | -0.0814 | 0.0286 | -0.0063 | -0.0182 | 0.0428 | -0.117 | -0.0141 | -0.0427 | -0.0467 | -0.0153 | 0.0043 | -0.0784 | -0.0139 | -0.0582 | -0.0396 | 0.0403 | -0.0272 | -0.0602 |
| COc1cccc(OCCCN)c1-c1cc(Nc2cnc(C#N)cn2)n[nH]1 [Prexasertib] + CCc1c2c(nc3ccc(O)cc13)-c1cc3c(c(=O)n1C2)COC(=O)[C@]3(O)CC [SN-38] (first compound max 1 µM, 7x7, partner max 0.3 µM) | 0.0241 | 0.0204 | -0.0355 | -0.0378 | -0.0621 | 0.0187 | 0.0183 | 0.224 | 0.0726 | 0.0182 | -0.0253 | 0.07 | -0.103 | 0.05 | -0.0153 | 0.0546 | 0.0367 | 0.0175 | 0.128 | 0.0525 |

Reference: the supplement of paper PMC11061612
